This assay relates to BDF1 mice, P388 leukemia ip, median survival T/C. Description: NCI In Vivo Anticancer Drug Screen. Data for tumor model P388 Leukemia (intraperitoneal) in B6D2F1 (BDF1) mice. Particulars: endpoint: median survival time, higher = longer survival. The procedure, abridged: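 Mice carrying the transplantable tumour receive compound or vehicle. Survival is followed in each arm, and the treated measure is divided by the vehicle measure.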

Where [1] appears, read: dose: 100.0 mg/kg/injection, schedule: Q01DX009 (ip), vehicle: saline with Tween-80.
[2] abbreviates: dose: 100.0 mg/kg/injection, schedule: Q04DX003 (ip), vehicle: saline with Tween-80.
Setting [3] is: dose: 200.0 mg/kg/injection, schedule: Q01DX009 (ip), vehicle: saline with Tween-80.
The mark [4] stands for this setting: dose: 200.0 mg/kg/injection, schedule: Q04DX003 (ip), vehicle: saline with Tween-80.
Where [5] appears, read: dose: 400.0 mg/kg/injection, schedule: Q01DX009 (ip), vehicle: saline with Tween-80.
Setting [6] is: dose: 400.0 mg/kg/injection, schedule: Q04DX003 (ip), vehicle: saline with Tween-80.
Where [7] appears, read: dose: 3.12 mg/kg/injection, schedule: Q01DX009 (ip), vehicle: Klucel (hydroxypropylcellulose) (HPC).
Where [8] appears, read: dose: 25.0 mg/kg/injection, schedule: Q01DX009 (ip), vehicle: saline with Tween-80.
[9] abbreviates: dose: 50.0 mg/kg/injection, schedule: Q01DX009 (ip), vehicle: saline with Tween-80.
The mark [10] stands for this setting: dose: 150.0 mg/kg/injection, schedule: Q01DX009 (ip), vehicle: other.
Setting [11] is: dose: 100.0 mg/kg/injection, schedule: Q04DX002 (ip), vehicle: saline with Tween-80.
The mark [12] stands for this setting: dose: 200.0 mg/kg/injection, schedule: Q04DX002 (ip), vehicle: saline with Tween-80.
Where [13] appears, read: dose: 400.0 mg/kg/injection, schedule: Q04DX002 (ip), vehicle: saline with Tween-80.
Setting [14] is: dose: 12.5 mg/kg/injection, schedule: Q01DX009 (ip), vehicle: saline with Tween-80.

The source of these data is PubChem BioAssay AID328 (DTP/NCI, 2004).

Several values for one entry are separate records, joined by “and”; a condition that tells them apart may be missing. Equal values may be shown once. Toxic doses and inconclusive results are not listed.

As for `O=C1c2ccccc2C(=O)N1OC1CCCCO1` (stereo not drawn), the T/C runs as follows: under setting [1], 91 % of control; under setting [2], 100 % of control; under setting [3], 87 % of control; under setting [4], 108 % of control; under setting [5], 100 % of control; under setting [6], 104 % of control.
For the compound `CCNc1ccc(/C=C2\C=Cc3ccccc32)cc1`, the T/C (dose: 0.39 mg/kg/injection, schedule: Q01DX009 (ip), vehicle: Klucel (hydroxypropylcellulose) (HPC)) is 100 % of control; the T/C (dose: 0.78 mg/kg/injection, schedule: Q01DX009 (ip), vehicle: Klucel (hydroxypropylcellulose) (HPC)) was 105 % of control; the T/C (dose: 1.56 mg/kg/injection, schedule: Q01DX009 (ip), vehicle: Klucel (hydroxypropylcellulose) (HPC)) is 110 % of control; the T/C under setting [7] is 90 % of control; the T/C (dose: 6.25 mg/kg/injection, schedule: Q01DX009 (ip), vehicle: olive oil, sesame oil, peanut oil) is 113 % of control; the T/C (dose: 12.5 mg/kg/injection, schedule: Q01DX009 (ip), vehicle: Klucel (hydroxypropylcellulose) (HPC)) was 95 % of control. For the same compound, the T/C was 118 % of control (dose: 12.5 mg/kg/injection, schedule: Q01DX009 (ip), vehicle: olive oil, sesame oil, peanut oil); 118 % of control (dose: 25.0 mg/kg/injection, schedule: Q01DX009 (ip), vehicle: olive oil, sesame oil, peanut oil); 100 % of control (dose: 50.0 mg/kg/injection, schedule: Q01DX009 (ip), vehicle: olive oil, sesame oil, peanut oil).
For `O=C(Nc1ccccc1O)/C(Cl)=C/Cl`, the T/C reads like this: (dose: 22.0 mg/kg/injection, schedule: Q01DX009 (ip), vehicle: saline with Tween-80) 122 % of control; (dose: 33.0 mg/kg/injection, schedule: Q01DX009 (ip), vehicle: saline with Tween-80) 123 % of control.
As for `COC(=O)CCCCCCCCC(C)c1ccccc1` (stereo not drawn), the T/C runs as follows: (dose: 264.0 mg/kg/injection, schedule: Q01DX009 (ip), vehicle: saline) 110 % of control; (dose: 400.0 mg/kg/injection, schedule: Q01DX009 (ip), vehicle: saline) 110 % of control.
Take `Cc1ccc(NS(=O)(=O)c2ccc(F)cc2)cc1C`: the T/C (dose: 100.0 mg/kg/injection, schedule: Q04DX003 (ip), vehicle: Klucel (hydroxypropylcellulose) (HPC)) was 109 % of control; the T/C (dose: 200.0 mg/kg/injection, schedule: Q04DX003 (ip), vehicle: Klucel (hydroxypropylcellulose) (HPC)) is 109 % of control; the T/C (dose: 400.0 mg/kg/injection, schedule: Q04DX003 (ip), vehicle: Klucel (hydroxypropylcellulose) (HPC)) is 104 % of control.
Regarding `COc1cc([C@@H]2c3cc4c(c(O)c3C[C@H]3COC(=O)[C@@H]32)OCO4)cc(OC)c1O`, the T/C (dose: 0.12 mg/kg/injection, schedule: Q01DX010 (ip), vehicle: carboxymethylcellulose (CMC)) was 105 % of control; the T/C (dose: 0.25 mg/kg/injection, schedule: Q01DX010 (ip), vehicle: carboxymethylcellulose (CMC)) is 100 % of control; the T/C (dose: 0.5 mg/kg/injection, schedule: Q01DX001 (ip), vehicle: other) was 121 % of control; the T/C (dose: 0.5 mg/kg/injection, schedule: Q01DX010 (ip), vehicle: other) was 118 % of control; the T/C (dose: 1.0 mg/kg/injection, schedule: Q01DX010 (ip), vehicle: carboxymethylcellulose (CMC)) is 100 % of control and 123 % of control; the T/C (dose: 30.0 micrograms/kg/injection, schedule: Q01DX010 (ip), vehicle: other) was 110 % of control. For the same compound, the T/C (dose: 60.0 micrograms/kg/injection, schedule: Q01DX010 (ip), vehicle: other) is 110 % of control.
For the compound `CCOC(=O)CN1C(=O)C(Cl)=C(Cl)C1=O`, the T/C runs as follows: under setting [7], 95 % of control; (dose: 6.25 mg/kg/injection, schedule: Q01DX009 (ip), vehicle: Klucel (hydroxypropylcellulose) (HPC)) 95 % of control; (dose: 9.2 mg/kg/injection, schedule: Q04DX003 (ip), vehicle: Klucel (hydroxypropylcellulose) (HPC)) 100 % of control; (dose: 14.0 mg/kg/injection, schedule: Q04DX003 (ip), vehicle: Klucel (hydroxypropylcellulose) (HPC)) 91 % of control; (dose: 21.0 mg/kg/injection, schedule: Q04DX003 (ip), vehicle: Klucel (hydroxypropylcellulose) (HPC)) 91 % of control; (dose: 29.0 mg/kg/injection, schedule: Q04DX003 (ip), vehicle: Klucel (hydroxypropylcellulose) (HPC)) 100 % of control.
Regarding `COC(=O)C(Cl)(Cl)N=Nc1c(Cl)cc(Cl)c(C)c1Cl`, the T/C was 119 % of control under setting [8], 124 % of control under setting [9] and 89 % of control under setting [3].
In the case of `CC1CN1CCS(=O)(=O)CCN1CC1C` (stereo not drawn), the T/C is 105 % of control (dose: 22.0 mg/kg/injection, schedule: Q04DX003 (ip), vehicle: saline); 100 % of control (dose: 33.0 mg/kg/injection, schedule: Q04DX003 (ip), vehicle: saline); 111 % of control (dose: 50.0 mg/kg/injection, schedule: Q04DX003 (ip), vehicle: saline); 122 % of control (dose: 75.0 mg/kg/injection, schedule: Q04DX003 (ip), vehicle: saline); 163 % of control under setting [10]; 209 % of control (dose: 225.0 mg/kg/injection, schedule: Q01DX009 (ip), vehicle: other).
For `CN(C)c1ccc(/C=N/Nc2ccc(C(C#N)=C(C#N)C#N)cc2)cc1`, the T/C is 101 % of control under setting [9], 89 % of control under setting [1] and 86 % of control under setting [3].
For the compound `CC(=O)CC(C)=O.CC(=O)CC(C)=O.Cc1nccn1C.O=N[O-].[Co]`, the T/C under setting [11] is 105 % of control.
Turning to `Cc1ccc2c(c1O)NC(=O)C1CCCN1C2=O` (stereo not drawn), the T/C is, setting by setting: under setting [11], 99 % of control; under setting [12], 102 % of control; under setting [13], 101 % of control.
On to `COc1cccc(Sc2ccc([N+](=O)[O-])c3no[n+]([O-])c23)c1`, for which the T/C is 102 % of control (dose: 30.0 mg/kg/injection, schedule: Q01DX009 (ip), vehicle: saline with Tween-80) and 115 % of control (dose: 60.0 mg/kg/injection, schedule: Q01DX009 (ip), vehicle: saline with Tween-80).
As for `O=C(/C=C(/c1ccccc1)P(=O)(c1ccccc1)c1ccccc1)c1ccccc1`, the T/C reads like this: under setting [1], 100 % of control; under setting [3], 95 % of control; under setting [5], 100 % of control.
For `CC(=O)OC1C=CCC2C(=O)C3=C(C(=O)c4ccccc4C3=O)C(=O)C12` (stereo not drawn), the T/C was 98 % of control (dose: 3.12 mg/kg/injection, schedule: Q01DX009 (ip), vehicle: saline with Tween-80); 98 % of control (dose: 6.25 mg/kg/injection, schedule: Q01DX009 (ip), vehicle: saline with Tween-80); 107 % of control under setting [14]; 112 % of control under setting [8]; 112 % of control under setting [9].
Consider `CCOC(=O)/C(=N\O)C1=CSC2=NNC(C)(C)N12`, for which the T/C by setting is: under setting [9], 95 % of control; under setting [3], 92 % of control.
As to `C[n+]1c(/C=C/c2ccc(N(CCC(=O)O)CCC(=O)O)cc2)ccc2cc(Cl)ccc21`, the T/C by setting is: (dose: 12.5 mg/kg/injection, schedule: Q01DX001 (ip), vehicle: saline with Tween-80) 109 % of control; (dose: 25.0 mg/kg/injection, schedule: Q01DX001 (ip), vehicle: saline with Tween-80) 88 % of control.
As for `CC1CN1P(=O)(OCCC#N)N1CC1C` (stereo not drawn), the T/C by setting is: (dose: 25.0 mg/kg/injection, schedule: Q01DX009 (ip), vehicle: saline) 115 % of control; (dose: 50.0 mg/kg/injection, schedule: Q01DX009 (ip), vehicle: saline) 97 % of control; (dose: 100.0 mg/kg/injection, schedule: Q04DX003 (ip), vehicle: other) 163 % of control; under setting [10], 170 % of control; (dose: 200.0 mg/kg/injection, schedule: Q01DX009 (ip), vehicle: saline) 160 % of control and 203 % of control; (dose: 200.0 mg/kg/injection, schedule: Q04DX003 (ip), vehicle: other) 227 % of control.
Consider `Cc1cc(N(C)C)c(C=O)c(C)c1C=O`, for which the T/C reads like this: under setting [11], 113 % of control; under setting [12], 110 % of control; under setting [13], 87 % of control.
For `C(=Nc1ccccc1)c1ccc(C=Nc2ccccc2)cc1`, the T/C by setting is: under setting [9], 110 % of control; under setting [1], 105 % of control; under setting [2], 104 % of control; under setting [3], 100 % of control; under setting [4], 109 % of control; under setting [6], 100 % of control.
With `Cc1cc(C)nc(NC(N)=NCCc2ccccc2)n1`, the T/C under setting [14] is 100 % of control, the T/C under setting [8] was 95 % of control and the T/C under setting [9] was 100 % of control.
